Reference: patent US12195427B2, “MASP-2 inhibitors and methods of use” (priority 2018, dated 2025)

Molecular target: MASP-2 CCP2-SP (Homo sapiens (Human), UniProt O00187)
Experiment: MASP-2 co-crystallization, X-ray crystallography and structure analysis (H-bonds, van der Waals contacts);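 on Ligand-pharmacophore element distance, pharmacophore element C2: distance from averaged pharmacophore element to bound ligand; missing value means element absent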;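 on Ligand-pharmacophore element distance, pharmacophore element C3: distance from averaged pharmacophore element to bound ligand; missing value means element absent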;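 on Ligand-pharmacophore element distance, pharmacophore element C4: distance from averaged pharmacophore element to bound ligand; missing value means element absent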;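 on Ligand-pharmacophore element distance, pharmacophore element C5: distance from averaged pharmacophore element to bound ligand; missing value means element absent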
Design: van der Waals contact distance, MASP-2 HIS 483 atom CD2 / van der Waals contact distance, MASP-2 HIS 483 atom NE2 / van der Waals contact distance, SER 654 C to compound atom / van der Waals contact distance, SER 654 O to compound atom / van der Waals contact distance, TRP 655 C to compound atom / van der Waals contact distance, MASP-2 GLY 528 atom CA / van der Waals contact distance TRP 655 atom CZ3 / van der Waals contact distance TRP 655 atom N / van der Waals contact distance TRP 655 atom CE3 / van der Waals contact distance GLY 656 atom C / van der Waals contact distance GLY 656 atom CA / van der Waals contact distance GLY 656 atom O / van der Waals contact distance, MASP-2 TYR 607 atom CD1 / van der Waals contact distance, MASP-2 PRO 606 atom O / d(C3,CA1) / d(CA1,N1)2 / d(H4,O1) / d(H4,O2) / d(O1,O2) / d(CA1,O2) / d(CA6,O1) / d(CA6,O2) / d(CA1,C5) / d(O2,H3) / d(N2,C2) / d(CA5,N2) / d(N2,C4) / d(N2,C6) / d(N2,CA3) / d(N2,O3) / d(O4,H2): unit not given beside the values
Settings: for Ligand-pharmacophore element distance, pharmacophore element C2 / Ligand-pharmacophore element distance, pharmacophore element C3 / Ligand-pharmacophore element distance, pharmacophore element C4 / Ligand-pharmacophore element distance, pharmacophore element C5 / Ligand-pharmacophore element distance, pharmacophore element C6 / Ligand-pharmacophore element distance, pharmacophore element C7 / Ligand-pharmacophore element distance, pharmacophore element CA1 / Ligand-pharmacophore element distance, pharmacophore element CA2 / Ligand-pharmacophore element distance, pharmacophore element CA3 / Ligand-pharmacophore element distance, pharmacophore element CA4 / Ligand-pharmacophore element distance, pharmacophore element CA5 / Ligand-pharmacophore element distance, pharmacophore element CA6: Table A4-1; for d(CA1,C5) / d(CA1,O1) / d(CA1,O2) / d(CA1,O4) / d(H4,O1) / d(H4,O2) / d(O1,O2) / d(O4,H2): Table A5-1 pharmacophore: distance between elements, S2/S1 region; for a(C5, CA1, O1) / a(CA1, O1, O2) / a(CA1, O4, H2) / a(O1, CA1, O4) / a(O1, O2, H4): Table A6-1 pharmacophore angle; for a(O1, O2, H3) / a(O1, O2, N2) / a(O2, N2, C2) / a(O2, N2, CA2): Table A6-2 pharmacophore angle; for Pharmacophore protein distance to MET_658 (first MET_658 column) / Pharmacophore protein distance to MET_658 (second MET_658 column) / Pharmacophore protein distance to GLY_528 / Pharmacophore protein distance to PHE_529 / Pharmacophore protein distance to PRO_608 / Pharmacophore protein distance to SER_611 / Pharmacophore protein distance to TRP_655: Table A8-6, nearest protein atom in cell to the left; for Pharmacophore protein distance to MET_658 (first MET_658 column): 6th residue column; for Pharmacophore protein distance to MET_658 (second MET_658 column): 9th residue column; for Pharmacophore protein distance to TRP_655: pharmacophore elements C6, CA3, O3, H1
How it was run: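 First, CCP2-SP constructs with or without a 6His tag are produced in E. coli. Crystals are then soaked once or twice with inhibitor, cryoprotected in 20% glycerol or frozen directly, and diffracted at synchrotron beamlines. Phasing uses molecular replacement with parts of 1Q3X.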

[1] = Table A5-2 pharmacophore distance, S3/S4 region
[2] = Table A7-1, between pharmacophore elements of the bound compound
[3] = Table A7-2, between pharmacophore elements of the bound compound

Sequence of MASP-2 CCP2-SP (O00187 445-686): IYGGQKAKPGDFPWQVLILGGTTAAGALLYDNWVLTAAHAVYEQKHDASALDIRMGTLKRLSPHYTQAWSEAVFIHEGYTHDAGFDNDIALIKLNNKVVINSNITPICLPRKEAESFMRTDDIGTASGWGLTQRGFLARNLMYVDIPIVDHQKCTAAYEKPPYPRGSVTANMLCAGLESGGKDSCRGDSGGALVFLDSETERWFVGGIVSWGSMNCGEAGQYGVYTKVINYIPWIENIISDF
Sequence of MASP-2 CCP2-SP (O00187 364-432 partner): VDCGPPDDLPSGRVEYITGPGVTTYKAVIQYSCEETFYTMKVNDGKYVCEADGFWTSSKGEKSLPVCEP

SMILES	Ligand-pharmacophore element distance, pharmacophore element C2	Ligand-pharmacophore element distance, pharmacophore element C3	Ligand-pharmacophore element distance, pharmacophore element C4	Ligand-pharmacophore element distance, pharmacophore element C5	Ligand-pharmacophore element distance, pharmacophore element C6	Ligand-pharmacophore element distance, pharmacophore element C7	Ligand-pharmacophore element distance, pharmacophore element CA1	Ligand-pharmacophore element distance, pharmacophore element CA2	Ligand-pharmacophore element distance, pharmacophore element CA3	Ligand-pharmacophore element distance, pharmacophore element CA4	Ligand-pharmacophore element distance, pharmacophore element CA5	Ligand-pharmacophore element distance, pharmacophore element CA6	d(CA1,O1)	d(CA1,O2)	d(H4,O1)	d(H4,O2)	d(O1,O2)	d(N2,C2) [1]	d(O2,H3) [1]	d(O2,N2) [1]	also measured
C[C@H](NC(=O)[C@H]1C[C@@H](c2ccccc2)CCN1)C(=O)NCc1cc(Cl)ccc1O.Cl [1078_14]	0.74	0	0	0.47	0	0	1.61	0.8	0	0	0	0	4.46	4.47	2.48	2.59	2.91	1.45	2.58	2.77	d(CA1,C5): 3.13; d(CA1,O4): 2.75; d(O4,H2): 0.97; d(N2,CA2) [1]: 5.69; a(C5, CA1, O1): 159.36; a(CA1, O1, O2): 109.29; a(CA1, O4, H2): 126.58; a(O1, CA1, O4): 70.42; a(O1, O2, H4): 109.80; a(O1, O2, H3): 144.55; a(O1, O2, N2): 148.03; a(O2, N2, C2): 129.57; a(O2, N2, CA2): 155.65; Pharmacophore torsion angle a(C5, CA1, O1, H4) [2]: 20.44; Pharmacophore torsion angle a(H4, O1, O2, H3) [2]: −134.39; Pharmacophore torsion angle a(H4, O1, O2, N2) [2]: −121.21; Pharmacophore torsion angle a(O1, H4, O2, CA1) [2]: −62.09; Pharmacophore torsion angle a(O1, O2, N2, C2) [2]: 126.74; Pharmacophore torsion angle a(O1, O2, N2, CA2) [3]: 134.23
C[C@H](NC(=O)[C@H]1C[C@@H](c2ccccc2)CCN1)C(=O)NCc1cc(Cl)ccc1O.Cl [1078_15]	0.81	0	0	0.43	0	0	1.56	0.65	0	0	0	0	4.59	4.59	2.66	2.49	2.93	1.45	2.97	2.84	d(CA1,C5): 3.13; d(CA1,O4): 2.74; d(O4,H2): 0.97; d(N2,CA2) [1]: 5.66; a(C5, CA1, O1): 160.41; a(CA1, O1, O2): 108.62; a(CA1, O4, H2): 127.31; a(O1, CA1, O4): 65.89; a(O1, O2, H4): 110.90; a(O1, O2, H3): 143.22; a(O1, O2, N2): 147.42; a(O2, N2, C2): 124.17; a(O2, N2, CA2): 155.02; Pharmacophore torsion angle a(C5, CA1, O1, H4) [2]: 19.98; Pharmacophore torsion angle a(H4, O1, O2, H3) [2]: −124.63; Pharmacophore torsion angle a(H4, O1, O2, N2) [2]: −117.88; Pharmacophore torsion angle a(O1, H4, O2, CA1) [2]: −64.96; Pharmacophore torsion angle a(O1, O2, N2, C2) [2]: 139.14; Pharmacophore torsion angle a(O1, O2, N2, C2)2 [2]: 139.34; Pharmacophore torsion angle a(O1, O2, N2, CA2) [3]: 141.63
C[C@H](NC(=O)[C@H]1C[C@@H](c2ccccc2)CCN1)C(=O)NCc1cc(Cl)ccc1O.Cl [1078_16]	0.64	0	0	0.42	0	0	1.49	0.49	0	0	0	0	4.42	4.54	2.20	2.69	3.11	1.49	2.96	2.90	d(CA1,C5): 3.13; d(CA1,O4): 2.74; d(O4,H2): 0.97; d(N2,CA2) [1]: 5.80; a(C5, CA1, O1): 161.46; a(CA1, O1, O2): 112.44; a(CA1, O4, H2): 126.68; a(O1, CA1, O4): 67.40; a(O1, O2, H4): 101.76; a(O1, O2, H3): 140.06; a(O1, O2, N2): 144.54; a(O2, N2, C2): 122.62; a(O2, N2, CA2): 154.31; Pharmacophore torsion angle a(C5, CA1, O1, H4) [2]: 14.30; Pharmacophore torsion angle a(H4, O1, O2, H3) [2]: −119.50; Pharmacophore torsion angle a(H4, O1, O2, N2) [2]: −111.94; Pharmacophore torsion angle a(O1, H4, O2, CA1) [2]: −58.07; Pharmacophore torsion angle a(O1, O2, N2, C2) [2]: 136.30; Pharmacophore torsion angle a(O1, O2, N2, CA2) [3]: 139 28
C[C@H](NC(=O)[C@H](N)C1Cc2ccccc2C1)C(=O)NCc1ccc2c(N)nccc2c1.Cl.Cl [1088_A]	1.75	0	0	0	0	0	0.4	0	0	0	0.39	0	5.33	4.61	6.97	5.89	3.49	3.41	3.72	2.73	d(CA5,N2) [1]: 5.30; a(CA1, O1, O2): 99.08; a(O1, O2, H4): 149.95; a(O1, O2, H3): 144.04; a(O1, O2, N2): 141.09; a(O2, N2, C2): 141.58; Pharmacophore torsion angle a(H4, O1, O2, H3) [2]: 49.33; Pharmacophore torsion angle a(H4, O1, O2, N2) [2]: 120.82; Pharmacophore torsion angle a(O1, H4, O2, CA1) [2]: −54.60; Pharmacophore torsion angle a(O1, O2, N2, C2) [2]: 103.40; Pharmacophore torsion angle a(O1, O2, N2, CA5) [3]: 116.27; Pharmacophore protein distance to MET_658 (first MET_658 column): 3.04; Pharmacophore protein distance to MET_658 (second MET_658 column): 3.12; Pharmacophore protein distance to GLY_528: 3.66; Pharmacophore protein distance to PHE_529: 2.75; Pharmacophore protein distance to PRO_608: 3.74; Pharmacophore protein distance to SER_611: 2.71; Pharmacophore protein distance to TRP_655: 3.75
C[C@H](NC(=O)[C@H](N)C1Cc2ccccc2C1)C(=O)NCc1ccc2c(N)nccc2c1.Cl.Cl [1088_B]	1.93	0	0	0	0	0	0.62	0.2	0	0	0	0	5.22	4.78	6.73	6.06	3.02	3.90	3.82	2.68	d(N2,CA2) [1]: 6.13; a(CA1, O1, O2): 99.27; a(O1, O2, H4): 153.40; a(O1, O2, H3): 144.52; a(O1, O2, N2): 135.22; a(O2, N2, C2): 140.65; a(O2, N2, CA2): 154.54; Pharmacophore torsion angle a(H4, O1, O2, H3) [2]: 45.99; Pharmacophore torsion angle a(H4, O1, O2, N2) [2]: 121.15; Pharmacophore torsion angle a(O1, H4, O2, CA1) [2]: −63.34; Pharmacophore torsion angle a(O1, O2, N2, C2) [2]: 129.99; Pharmacophore torsion angle a(O1, O2, N2, CA2) [3]: 134.51; Pharmacophore protein distance to MET_658 (first MET_658 column): 3.04; Pharmacophore protein distance to MET_658 (second MET_658 column): 3.12; Pharmacophore protein distance to GLY_528: 3.66; Pharmacophore protein distance to PHE_529: 2.75; Pharmacophore protein distance to PRO_608: 3.74; Pharmacophore protein distance to SER_611: 2.71; Pharmacophore protein distance to TRP_655: 3.75
